The results in this text go back to ChEMBL document CHEMBL1140825, “Cy3-3-acylcholine: a fluorescent analogue of acetylcholine for single molecule detection” (Bioorg Med Chem Lett, 2008).

The structures appear in SMILES notation. Active and inactive are the calls of the source. The calls are words filed in the database; no cut-off is given here.

Test [1] relates to Tetronarce californica. Put plainly: Binding affinity to Torpedo californica nACh receptor in reconstituted diphytanoylphosphatidylcholine/cholesterol vesicles.
Test [2] deals with Neuronal acetylcholine receptor subunit alpha-4 (Gallus gallus) (UniProt P09482). Put plainly: Agonist activity at chicken nACh receptor alpha4beta2 expressed in Xenopus laevis oocytes assessed as time taken for current to decay from its peak to 50% at 100 nM by two-electrode voltage clamp assay. The settings on record: Oocyte. The test is classed as functional, cell-based. (In two-electrode clamp one electrode senses voltage and the other passes current.)
Neuronal acetylcholine receptor subunit alpha-4 (Gallus gallus), sequence (P09482 whole entry): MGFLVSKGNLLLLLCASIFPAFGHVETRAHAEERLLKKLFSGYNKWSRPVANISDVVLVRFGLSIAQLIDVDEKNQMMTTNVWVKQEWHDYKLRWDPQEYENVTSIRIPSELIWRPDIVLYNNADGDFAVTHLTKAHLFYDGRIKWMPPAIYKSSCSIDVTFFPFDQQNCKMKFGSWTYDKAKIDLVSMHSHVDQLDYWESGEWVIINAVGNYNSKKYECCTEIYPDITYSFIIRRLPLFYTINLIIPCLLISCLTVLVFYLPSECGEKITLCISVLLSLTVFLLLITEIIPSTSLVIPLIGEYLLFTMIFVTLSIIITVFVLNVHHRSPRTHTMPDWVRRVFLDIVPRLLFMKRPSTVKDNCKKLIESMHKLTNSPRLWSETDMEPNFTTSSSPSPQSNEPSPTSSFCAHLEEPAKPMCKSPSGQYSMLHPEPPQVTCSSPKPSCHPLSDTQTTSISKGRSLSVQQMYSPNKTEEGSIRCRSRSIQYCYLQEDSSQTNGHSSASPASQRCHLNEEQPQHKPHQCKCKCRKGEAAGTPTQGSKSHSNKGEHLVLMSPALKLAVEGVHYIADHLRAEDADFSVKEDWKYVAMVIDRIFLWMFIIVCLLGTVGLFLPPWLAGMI

The test system of test [3] is Tetronarce californica. Put plainly: Displacement of non fluorescent acetylcholine from torpedo californica nACh receptor.

For the compound `CCN1/C(=C/C=C/C2=[N+](CCCCCC(=O)NCCCC(=O)OCC[N+](C)(C)C)c3ccc(S(=O)(=O)[O-])cc3C2(C)C)C(C)(C)c2cc(S(=O)(=O)[O-])ccc21`, the result in test [1] and in test [3] was Active. Further, the T1/2 in test [2] came to 25 s.
